US10647675B2 (priority 2015, dated 2020)
Values after ≈ are worked out from the molar mass of the structure shown.

Key:
[1] = test system: Trichophyton rubrum KD-1130; experiment: Antifungal activity evaluation test: minimum inhibitory concentration (MIC), broth dilution by reference to CLSI M38-A2; assay type: cell-based; conditions: KD1130, read-out: MIC (T. rubrum)
Experimental: (§1) The minimum inhibitory concentration (MIC) for Trichophyton mentagrophytes and Trichophyton rubrum was measured by the following procedure by reference to Clinical and Laboratory standards Institute (CLSI) guidelines M38-A2. Reference document for the measurement method: National Committee for a Clinical Laboratory Standards. Reference method for broth dilution antifungal susceptibility testing of filamentous fungi. Approved standard Second edition M38-A2. Wayne, Pa.: National Committee for a Clinical Laboratory Standards, 2008. • Test compound solution: A test compound was dissolved in dimethyl sulfoxide (DMSO) at a concentration of 2.5 mg/mL to give a stock solution. The stock solution was appropriately diluted with DMSO to prepare a 2-fold dilution series. As control compounds, terbinafine and amorolfine were used. • Test strains: Trichophyton mentagrophytes SM-110 and Trichophyton rubrum KD-1130 were used. • Preparation of fungal culture to be inoculated: The above-mentioned test strain was suspended in 0.05% Tween 80-containing saline, and the fungi of the genus Trichophyton were prepared to a fungal concentration of 1×10^6 cells/mL by using a hemocytometer. Then, using MOPS-buffered RPMI 1640 medium (pH 7.0) as a test medium, a fungal culture of the fungi of the genus Trichophyton was diluted 250-fold (4×10^3 cells/mL) to give a fungal culture for inoculation. • MIC measurement of genus Trichophyton fungi: MOPS-buffered RPMI 1640 medium (pH 7.0) was dispensed by 100 μL to given wells of a 96 well U-bottom microplate. Then, the test compound solution (2 μL) was added, the mixture was sufficiently stirred by a plate mixer. The fungal culture (100 μL) was inoculated and the mixture was cultured at 35° C. for 4 days (final fungal concentration: 2×10^3 cells/mL). After the culture, the minimum drug concentration of a well in which a growth inhibitory action of not less than 80% was visually observed as compared to a growth control was taken as a minimum inhibitory concentration (MIC: μg/mL).
(§2) The abbreviations in the Tables mean the following fungi and compounds. • T. menta.: Trichophyton mentagrophytes • T. rubrum: Trichophyton rubrum • TBF: terbinafine • AMF: amorolfine

[2] = test system: Trichophyton mentagrophytes SM-110; experiment: as above; assay type: cell-based; conditions: SM110, read-out: MIC (T. menta.)
Experimental: as §1, §2

Row | MIC [1] [µg/mL] | MIC [2] [µg/mL] | SMILES
1 | 0.2 to 0.78 (≈ 0.514 to 2 µM) | 0.2 to 0.78 (≈ 0.514 to 2 µM) | Cc1nn2c(c1-c1cccnc1Oc1ccc(C(F)(F)F)cc1)OCCCC2 [I-233, 2-methyl-3-{2-[4-(trifluoromethyl)phenoxy]pyridin-3-yl}-5,6,7,8-tetrahydropyrazolo[1,5-b][1,3]oxazepine]
2 | ≤ 0.1 | ≤ 0.1 | COc1ccccc1-c1cccnc1Oc1cnc2c(c1)CCC=C2 [I-144, 3-{[3-(2-methoxyphenyl)pyridin-2-yl]oxy}-5,6-dihydroquinoline]
3 | ≤ 0.1 | ≤ 0.1 | COc1cc(F)ccc1-c1cccnc1Oc1ccc(C2CC2)nc1 [I-129, 2-[(6-cyclopropylpyridin-3-yl)oxy]-3-(4-fluoro-2-methoxyphenyl)pyridine]
4 | ≤ 0.1 | ≤ 0.1 | C#CCCc1ccc(Oc2ncccc2-c2cccnc2OC)cc1 [I-407, 2-[4-(but-3-yn-1-yl)phenoxy]-2′-methoxy-3,3′-bipyridine]
5 | ≤ 0.1 | ≤ 0.1 | COc1ncccc1-c1cccnc1Oc1ccc(OCc2ccccc2)cc1 [I-277, 2-[4-(benzyloxy)phenoxy]-2′-methoxy-3,3′-bipyridine]
6 | 0.2 to 0.78 (≈ 0.533 to 2.08 µM) | 0.2 to 0.78 (≈ 0.533 to 2.08 µM) | COc1ccccc1-c1cccnc1Oc1cnc2c(c1)CCCC2N(C)C (stereo not shown) [I-143, 3-{[3-(2-methoxyphenyl)pyridin-2-yl]oxy}-N,N-dimethyl-5,6,7,8-tetrahydroquinolin-8-amine]
7 | ≤ 0.1 | ≤ 0.1 | COc1ncccc1-c1cccnc1Oc1ccc(C(C)C)cc1 [I-447]
8 | ≤ 0.1 | ≤ 0.1 | COc1cnccc1-c1cccnc1Oc1ccc(C(F)(F)F)cc1 [I-204, 3′-methoxy-2-[4-(trifluoromethyl)phenoxy]-3,4′-bipyridine]
9 | 0.2 to 0.78 (≈ 0.626 to 2.44 µM) | 0.2 to 0.78 (≈ 0.626 to 2.44 µM) | COc1ncccc1-c1cccnc1Oc1ccc(C2CC2)nc1 [I-130, 2-[(6-cyclopropylpyridin-3-yl)oxy]-2′-methoxy-3,3′-bipyridine]
10 | 0.2 to 0.78 (≈ 0.576 to 2.25 µM) | 0.2 to 0.78 (≈ 0.576 to 2.25 µM) | COc1ccncc1-c1cccnc1Oc1ccc(C(F)(F)F)nc1 [I-28, 4′-methoxy-2-{[6-(trifluoromethyl)pyridin-3-yl]oxy}-3,3′-bipyridine]
11 | ≤ 0.1 | ≤ 0.1 | COc1cc(F)ccc1-c1cccnc1Oc1cnc(C(F)(F)F)c(C)c1 [I-118, 5-{[3-(4-fluoro-2-methoxyphenyl)pyridin-2-yl]oxy}-3-methyl-2-(trifluoromethyl)pyridine]
12 | ≤ 0.1 | ≤ 0.1 | COCC(F)(F)c1ccc(Oc2ncccc2-c2cc(OC)ccc2F)cn1 [I-458]
13 | ≤ 0.1 | ≤ 0.1 | CCCN(C)c1ncc(Oc2ncccc2-c2ccccc2OC)cn1 [I-182, 5-{[3-(2-methoxyphenyl)pyridin-2-yl]oxy}-N-methyl-N-propylpyrimidin-2-amine]
14 | ≤ 0.1 | ≤ 0.1 | COc1cc(-c2cccnc2Oc2ccc(C(F)F)nc2)ccc1F [I-75, 2-{[6-(difluoromethyl)pyridin-3-yl]oxy}-3-(4-fluoro-3-methoxyphenyl)pyridine]
15 | ≤ 0.1 | ≤ 0.1 | COc1ncccc1-c1cccnc1Oc1ccc(CCn2cccn2)cc1 [I-400, 2-{4-[2-(1H-pyrazol-1-yl)ethyl]phenoxy}-2′-methoxy-3,3′-bipyridine]
16 | 0.2 to 0.78 (≈ 0.522 to 2.03 µM) | 0.2 to 0.78 (≈ 0.522 to 2.03 µM) | COCC(F)(F)c1ccc(Oc2ncccc2-c2cccc3ncnn23)cn1 [I-343, 5-(2-{[6-(1,1-difluoro-2-methoxyethyl)pyridin-3-yl]oxy}pyridin-3-yl)-[1,2,4]triazolo[1,5-a]pyridine]
17 | 0.2 to 0.78 (≈ 0.5 to 1.95 µM) | 0.2 to 0.78 (≈ 0.5 to 1.95 µM) | FC(F)(F)Oc1ccccc1-c1cccnc1Oc1ccc(C(F)(F)F)nc1 [I-21, 3-(2-trifluoromethoxyphenyl)-2-{[6-(trifluoromethyl)pyridin-3-yl]oxy}pyridine]
18 | ≤ 0.1 | ≤ 0.1 | C=C(C)c1ccc(Oc2ncccc2-c2ccccc2OC)cn1 [I-453]
19 | ≤ 0.1 | ≤ 0.1 | FC(F)(F)c1ccc(Oc2ncccc2-c2cccc3ccnn23)cc1 [I-228, 7-{2-[4-(trifluoromethyl)phenoxy]pyridin-3-yl}pyrazolo[1,5-a]pyridine]
20 | 0.2 to 0.78 (≈ 0.492 to 1.92 µM) | 1.56 to 6.25 (≈ 3.84 to 15.4 µM) | COc1ncccc1-c1cccnc1Oc1cnc(I)nc1 [I-353]
21 | ≤ 0.1 | 0.2 to 0.78 (≈ 0.548 to 2.14 µM) | COc1ncc(F)cc1-c1cccnc1Oc1ccc(C(F)(F)F)nc1 [I-32, 5-fluoro-2-methoxy-2′-{[6-(trifluoromethyl)pyridin-3-yl]oxy}-3,3′-bipyridine]

Row | MIC [1] [µg/mL] | MIC [2] [µg/mL] | SMILES
22 | 0.2 to 0.78 (≈ 0.549 to 2.14 µM) | 0.2 to 0.78 (≈ 0.549 to 2.14 µM) | COCC(C)(C)c1ccc(Oc2ncccc2-c2cnccc2OC)cc1 [I-275, 4′-methoxy-2-[4-(1-methoxy-2-methylpropan-2-yl)phenoxy]-3,3′-bipyridine]
23 | 0.2 to 0.78 (≈ 0.524 to 2.05 µM) | 0.2 to 0.78 (≈ 0.524 to 2.05 µM) | N#Cc1cnn2c(-c3cccnc3Oc3ccc(C(F)(F)F)nc3)cccc12 [I-54, 7-(2-{[6-(trifluoromethyl)pyridin-3-yl]oxy}pyridin-3-yl)-pyrazolo[1,5-a]pyridine-3-carbonitrile]
24 | ≤ 0.1 | ≤ 0.1 | COCC(F)(F)c1ccc(Oc2ncccc2-c2cccc3ccnn23)cc1 [I-413, 7-{2-[4-(1,1-difluoro-2-methoxyethyl)phenoxy]pyridin-3-yl}pyrazolo[1,5-a]pyridine]
25 | ≤ 0.1 | ≤ 0.1 | CCCN(C)c1ncc(Oc2ncccc2-c2cc(Cl)cnc2OC)cn1 [I-452]
26 | ≤ 0.1 | ≤ 0.1 | CC(F)(F)c1ccc(Oc2ncccc2-c2cncc3ccccc23)cn1 [I-109, 4-(2-{[6-(1,1-difluoroethyl)pyridin-3-yl]oxy}pyridin-3-yl)isoquinoline]
27 | 0.2 to 0.78 (≈ 0.574 to 2.24 µM) | 0.2 to 0.78 (≈ 0.574 to 2.24 µM) | COc1ccccc1-c1cccnc1Oc1cnc2c(c1)CCCC2O (stereo not shown) [I-140, 3-{[3-(2-methoxyphenyl)pyridin-2-yl]oxy}-5,6,7,8-tetrahydroquinolin-8-ol]
28 | 0.2 to 0.78 (≈ 0.653 to 2.55 µM) | 0.2 to 0.78 (≈ 0.653 to 2.55 µM) | CCc1cccc(Oc2ncccc2-c2cnccc2OC)c1 [I-265, 2-(3-ethylphenoxy)-4′-methoxy-3,3′-bipyridine]
29 | ≤ 0.1 | ≤ 0.1 | COc1ncccc1-c1cccnc1Oc1ccc(CCc2nc(C)no2)cc1 [I-411]
30 | ≤ 0.1 | ≤ 0.1 | COc1ccccc1-c1cccnc1Oc1ccc2c(c1)CCCC2 [I-268, 3-(2-methoxyphenyl)-2-[(5,6,7,8-tetrahydronaphthalen-2-yl)oxy]pyridine]
31 | ≤ 0.1 | 0.2 to 0.78 (≈ 0.576 to 2.25 µM) | COc1ccccc1-c1nccnc1Oc1ccc(C(F)(F)F)nc1 [I-309, 2-(2-methoxyphenyl)-3-{[6-(trifluoromethyl)pyridin-3-yl]oxy}pyrazine]
32 | ≤ 0.1 | ≤ 0.1 | COc1ccncc1-c1cccnc1Oc1ccc(OCc2ccccc2)nc1 [I-177, 2-{[6-(benzyloxy)pyridin-3-yl]oxy}-4′-methoxy-3,3′-bipyridine]
33 | ≤ 0.1 | ≤ 0.1 | COc1nccnc1-c1cccnc1Oc1ccc(C(F)(F)F)cc1 [I-218, 2-methoxy-3-{2-[4-(trifluoromethyl)phenoxy]pyridin-3-yl}pyrazine]
34 | ≤ 0.1 | ≤ 0.1 | COc1cc(F)ccc1-c1cccnc1Oc1cnc(C2(C)CC2)nc1 [I-379, 5-{[3-(4-fluoro-2-methoxyphenyl)pyridin-2-yl]oxy}-2-(1-methylcyclopropyl)pyrimidine]
35 | 1.56 to 6.25 (≈ 4.39 to 17.6 µM) | 0.2 to 0.78 (≈ 0.563 to 2.2 µM) | FC(F)(F)c1ccc(Oc2ncccc2-c2cccn3ccnc23)cc1 [I-229, 8-{2-[4-(trifluoromethyl)phenoxy]pyridin-3-yl}imidazo[1,2-a]pyridine]
36 | 0.2 to 0.78 (≈ 0.5 to 1.95 µM) | 0.2 to 0.78 (≈ 0.5 to 1.95 µM) | FC(F)(F)c1ccc(Oc2ncccc2-c2ccccc2OCC2CCC2)cn1 [I-55, 3-[2-(cyclobutylmethoxy)phenyl]-2-{[6-(trifluoromethyl)pyridin-3-yl]oxy}pyridine]
37 | 1.56 to 6.25 (≈ 4.87 to 19.5 µM) | 1.56 to 6.25 (≈ 4.87 to 19.5 µM) | COc1ccncc1-c1cccnc1Oc1ccc(C(C)=O)cc1 [I-244]
38 | ≤ 0.1 | ≤ 0.1 | COc1ccccc1-c1cccnc1Oc1cnc(C(F)(F)F)c(C)c1 [I-117, 5-{[3-(2-methoxyphenyl)pyridin-2-yl]oxy}-3-methyl-2-(trifluoromethyl)pyridine]
39 | 0.2 to 0.78 (≈ 0.543 to 2.12 µM) | 0.2 to 0.78 (≈ 0.543 to 2.12 µM) | FC(F)(F)c1ccc(Oc2ncccc2-c2cccc3nccnc23)cn1 [I-37, 5-(2-{[6-(trifluoromethyl)pyridin-3-yl]oxy}pyridin-3-yl)quinoxaline]
40 | ≤ 0.1 | ≤ 0.1 | COC(=O)CN(C)c1ncc(Oc2ncccc2-c2ccc(F)cc2OC)cn1 [I-192, methyl 2-[(5-{[3-(4-fluoro-2-methoxyphenyl)pyridin-2-yl]oxy}-pyrimidin-2-yl)(methyl)amino]acetate]
41 | ≤ 0.1 | ≤ 0.1 | C#Cc1ccccc1-c1cccnc1Oc1ccc(C(F)(F)F)nc1 [I-64, 3-(2-ethynylphenyl)-2-{[6-(trifluoromethyl)pyridin-3-yl]oxy}pyridine]
